Data: patent publication US6358885B1, “Substituted phenylheterocyclic herbicides” (Mississippi State University, priority 1992, dated 2002)

Key:
rice = assay: Test B preemergence/postemergence greenhouse plant response rating 0 to 10; assay type: in vivo, Oryza sativa; settings: 0 to 10 scale
Procedure, shortened: (§1)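 Test chemicals were sprayed onto freshly planted seed and, concurrently, onto young plants between the one and four leaf stage. After a twelve- to sixteen-day greenhouse period, each species was visually compared with untreated controls.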

barnyardgrass = assay: Test C flood test plant response rating 0 to 100; assay type: in vivo, Echinochloa crus-galli; settings: for Plant response rating Barnyardgrass 2: flood test species listed under POSTEMERGENCE, 0 to 100 scale
From the text: (§2) The compounds evaluated in this test were formulated in a non-phytoxic solvent and applied to the soil surface before plant seedlings emerged (preemergence application), to water that covered the soil surface (flood application), and to plants that were in the one-to-four leaf stage (postemergence application). A sandy loam soil was used for the preemergence and postemergence tests, while a silt loam soil was used in the flood test. Water depth was approximately 2.5 cm for the flood test and was maintained at this level for the duration of the test. Plant species in the preemergence and postemergence tests consisted of barley (Hordeum vulgare), bedstraw (Galium aparine), blackgrass (Alopecurus myosuroides), chickweed (Stellaria media), corn (Zea mays), cotton (Gossypium hirsutum), crabgrass (Digitaria sanguinalis), downy brome (Bromus tectorum), giant foxtail (Setaria faberii), lambsquarters (Chenopodium album), morningglory (Ipomoea hederacea), pigweed ([…]), rape (Brassica napus), ryegrass (Lolium multiflorum), sorghum (Sorghum bicolor), soybean (Glycine max), speedwell (Veronica persica), sugar beet (Beta vulgaris), velvetleaf (Abutilon theophrasti), wheat (Triticum aestivum), wild buckwheat (Polygonum convolvulus), and wild oat (Avena fatua). All plant species were planted one day before application of the compound for the preemergence portion-of this test. Plantings of these species were adjusted to produce plants of appropriate size for the post-emergence portion of the test. […] All plant species were grown using normal greenhouse practices. Visual evaluations of injury expressed on treated plants, when compared to untreated controls, were recorded approximately fourteen to twenty one days after application of the test compound. […] A dash (-) response means no test result.

lambsquarters [1] = assay: Test C preemergence/postemergence greenhouse plant response rating 0 to 100; assay type: in vivo, Chenopodium album; settings: POSTEMERGENCE; for Plant response rating Lambsquarters: 0 to 100 scale
Procedure, shortened: (§3)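 Compounds in non-phytotoxic solvent applied preemergence to sandy loam one day after planting, postemergence at the 1–4 leaf stage, or to ~2.5 cm floodwater over silt loam.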

cheatgrass = assay: Test B preemergence/postemergence greenhouse plant response rating 0 to 10; assay type: in vivo, Bromus secalinus; settings: 0 to 10 scale
Procedure, shortened: as §1

giant foxtail = assay: Test C preemergence/postemergence greenhouse plant response rating 0 to 100; assay type: in vivo, Setaria faberii; settings: POSTEMERGENCE; for Plant response rating, Giant foxtail: 0 to 100 scale
Procedure, shortened: as §3

wheat = assay: Test B preemergence/postemergence greenhouse plant response rating 0 to 10; assay type: in vivo, Triticum aestivum; settings: 0 to 10 scale
Procedure, shortened: as §1

sugar beet = assay: Test C preemergence/postemergence greenhouse plant response rating 0 to 100; assay type: in vivo, Beta vulgaris; settings: POSTEMERGENCE; for Plant response rating, Sugar beet: 0 to 100 scale
Procedure, shortened: as §3

duck salad = assay: Test C flood test plant response rating 0 to 100; assay type: in vivo, Heteranthera limosa; settings: for Plant response rating Duck salad: flood test species listed under POSTEMERGENCE, 0 to 100 scale
From the text: as §2

crabgrass = assay: Test C preemergence/postemergence greenhouse plant response rating 0 to 100; assay type: in vivo, Digitaria sanguinalis; settings: POSTEMERGENCE; for Plant response rating, Crabgrass: 0 to 100 scale
Procedure, shortened: as §3

cotton [2] = assay: Test B preemergence/postemergence greenhouse plant response rating 0 to 10; assay type: in vivo, Gossypium hirsutum; settings: 0 to 10 scale
Procedure, shortened: as §1

velvetleaf = assay: Test C preemergence/postemergence greenhouse plant response rating 0 to 100; assay type: in vivo, Abutilon theophrasti; settings: POSTEMERGENCE; for Plant response rating, Velvetleaf: 0 to 100 scale
Procedure, shortened: as §3

corn = assay: Test B preemergence/postemergence greenhouse plant response rating 0 to 10; assay type: in vivo, Zea mays; settings: 0 to 10 scale
Procedure, shortened: as §1

cotton [3] = assay: Test C preemergence/postemergence greenhouse plant response rating 0 to 100; assay type: in vivo, Gossypium hirsutum; settings: POSTEMERGENCE; for Plant response rating, Cotton: 0 to 100 scale
Procedure, shortened: as §3

downy brome = assay: as above; assay type: in vivo, Bromus tectorum; settings: POSTEMERGENCE; for Plant response rating Downy Brome: 0 to 100 scale
Procedure, shortened: as §3

wild oat = assay: Test B preemergence/postemergence greenhouse plant response rating 0 to 10; assay type: in vivo, Avena fatua; settings: 0 to 10 scale
Procedure, shortened: as §1

lambsquarters [4] = assay: as above; assay type: in vivo, Chenopodium album; settings: 0 to 10 scale
Procedure, shortened: as §1

bedstraw = assay: Test C preemergence/postemergence greenhouse plant response rating 0 to 100; assay type: in vivo, Galium aparine; settings: POSTEMERGENCE; for Plant response rating, Bedstraw: 0 to 100 scale
Procedure, shortened: as §3

sorghum = assay: as above; assay type: in vivo, Sorghum bicolor; settings: POSTEMERGENCE; for Plant response rating, Sorghum: 0 to 100 scale
Procedure, shortened: as §3

[5] = POSTEMERGENCE section, flood test, Rate 4 g/ha
[6] = Rate 16 g/ha, under POSTEMERGENCE head (flood test species)

CC(C)OC(=O)c1cc(-c2nn3c(c2Cl)CCCC3)c(F)cc1Cl [Compound 44]
Plant response rating, Rice (rice; POSTEMERGENCE, Rate 50 g/ha): 5
Plant response rating, Rice (rice; PREEMERGENCE, Rate 50 g/ha): 1
Plant response rating, Rice (rice; Rate 200 g/ha, POSTEMERGENCE): 9
Plant response rating, Rice (rice; Rate 200 g/ha, PREEMERGENCE): 2
Plant response rating (0 to 100), Barnyardgrass 2 (barnyardgrass; [5]): 65
Plant response rating (0 to 100), Barnyardgrass 2 (barnyardgrass; [6]): 100
Plant response rating Barnyardgrass 2 (barnyardgrass; 62 g/ha): 100
Plant response rating Barnyardgrass 2 (barnyardgrass; 250 g/ha): 100
Plant response rating Lambsquarters (lambsquarters [1]; 62 g/ha): 100
Plant response rating Lambsquarters (lambsquarters [1]; 250 g/ha): 100
Plant response rating (0 to 100), Lambsquarters (lambsquarters [1]; Rate 4 g/ha): 90
Plant response rating (0 to 100), Lambsquarters (lambsquarters [1]; Rate 16 g/ha): 100
Plant response rating, Cheatgrass (cheatgrass; POSTEMERGENCE, Rate 50 g/ha): 7
Plant response rating, Cheatgrass (cheatgrass; POSTEMERGENCE, Rate 200 g/ha): 10
Plant response rating, Cheatgrass (cheatgrass; PREEMERGENCE, Rate 50 g/ha): 2
Plant response rating, Cheatgrass (cheatgrass; Rate 200 g/ha, PREEMERGENCE): 6
Plant response rating, Giant foxtail (giant foxtail; 62 g/ha): 60
Plant response rating, Giant foxtail (giant foxtail; 250 g/ha): 100
Plant response rating (0 to 100), Giant foxtail (giant foxtail; Rate 4 g/ha): 20
Plant response rating (0 to 100), Giant foxtail (giant foxtail; Rate 16 g/ha): 40
Plant response rating, Wheat (wheat; POSTEMERGENCE, Rate 50 g/ha): 6
Plant response rating, Wheat (wheat; PREEMERGENCE, Rate 50 g/ha): 3
Plant response rating, Wheat (wheat; Rate 200 g/ha, POSTEMERGENCE): 6
Plant response rating, Wheat (wheat; Rate 200 g/ha, PREEMERGENCE): 3
Plant response rating, Sugar beet (sugar beet; 62 g/ha): 100
Plant response rating, Sugar beet (sugar beet; 250 g/ha): 100
Plant response rating (0 to 100), Sugar beet (sugar beet; Rate 4 g/ha): 80
Plant response rating (0 to 100), Sugar beet (sugar beet; Rate 16 g/ha): 100
Plant response rating (0 to 100), Duck salad (duck salad; [5]): 0
Plant response rating (0 to 100), Duck salad (duck salad; [6]): 30
Plant response rating Duck salad (duck salad; 62 g/ha): 70
Plant response rating Duck salad (duck salad; 250 g/ha): 90
Plant response rating, Crabgrass (crabgrass; 62 g/ha): 40
Plant response rating, Crabgrass (crabgrass; 250 g/ha): 50
Plant response rating (0 to 100), Crabgrass (crabgrass; Rate 4 g/ha): 20
Plant response rating (0 to 100), Crabgrass (crabgrass; Rate 16 g/ha): 30
Plant response rating, Cotton (cotton [2]; POSTEMERGENCE, Rate 50 g/ha): 10
Plant response rating, Cotton (cotton [2]; POSTEMERGENCE, Rate 200 g/ha): 10
Plant response rating, Cotton (cotton [2]; PREEMERGENCE, Rate 50 g/ha): 1
Plant response rating, Cotton (cotton [2]; Rate 200 g/ha, PREEMERGENCE): 8
Plant response rating, Velvetleaf (velvetleaf; 62 g/ha): 100
Plant response rating, Velvetleaf (velvetleaf; 250 g/ha): 100
Plant response rating (0 to 100), Velvetleaf (velvetleaf; Rate 4 g/ha): 80
Plant response rating (0 to 100), Velvetleaf (velvetleaf; Rate 16 g/ha): 90
Plant response rating, Corn (corn; POSTEMERGENCE, Rate 50 g/ha): 4
Plant response rating, Corn (corn; POSTEMERGENCE, Rate 200 g/ha): 6
Plant response rating, Corn (corn; PREEMERGENCE, Rate 50 g/ha): 2
Plant response rating, Corn (corn; Rate 200 g/ha, PREEMERGENCE): 3
Plant response rating, Cotton (cotton [3]; 62 g/ha): 100
Plant response rating, Cotton (cotton [3]; 250 g/ha): 100
Plant response rating (0 to 100), Cotton (cotton [3]; Rate 4 g/ha): 90
Plant response rating (0 to 100), Cotton (cotton [3]; Rate 16 g/ha): 100
Plant response rating Downy Brome (downy brome; 62 g/ha): 50
Plant response rating Downy Brome (downy brome; 250 g/ha): 90
Plant response rating (0 to 100), Downy Brome (downy brome; Rate 4 g/ha): 20
Plant response rating (0 to 100), Downy Brome (downy brome; Rate 16 g/ha): 40
Plant response rating, Wild oat (wild oat; POSTEMERGENCE, Rate 50 g/ha): 5
Plant response rating, Wild oat (wild oat; PREEMERGENCE, Rate 50 g/ha): 4
Plant response rating, Wild oat (wild oat; Rate 200 g/ha, POSTEMERGENCE): 8
Plant response rating, Lambsquarter (lambsquarters [4]; POSTEMERGENCE, Rate 50 g/ha): 10
Plant response rating, Lambsquarter (lambsquarters [4]; PREEMERGENCE, Rate 50 g/ha): 10
Plant response rating, Lambsquarter (lambsquarters [4]; Rate 200 g/ha, POSTEMERGENCE): 10
Plant response rating, Lambsquarter (lambsquarters [4]; Rate 200 g/ha, PREEMERGENCE): 10
Plant response rating, Bedstraw (bedstraw; 62 g/ha): 80
Plant response rating, Bedstraw (bedstraw; 250 g/ha): 100
Plant response rating (0 to 100), Bedstraw (bedstraw; Rate 4 g/ha): 60
Plant response rating (0 to 100), Bedstraw (bedstraw; Rate 16 g/ha): 80
Plant response rating, Sorghum (sorghum; 62 g/ha): 60
Plant response rating, Sorghum (sorghum; 250 g/ha): 100
Plant response rating (0 to 100), Sorghum (sorghum; Rate 4 g/ha): 30
Plant response rating (0 to 100), Sorghum (sorghum; Rate 16 g/ha): 40
